Test results reported in a compilation of properties of binary mixtures (doi:10.1007/s10953-023-01258-3).

Assay: xn = mol fraction of the nth substance listed
Settings: 101 kPa

Cn1cc[n+](CCCN)c1.F[B-](F)(F)F + CS(C)=O
Settings	electrical conductivity [S/m]	viscosity [mPa·s]
288.15 K, x1 = 0.1003	0.829	17.63
288.15 K, x1 = 0.2	0.632	34.87
288.15 K, x1 = 0.2997	0.465	54.65
288.15 K, x1 = 0.3997	0.288	75.94
288.15 K, x1 = 0.4998	0.187	98.4
288.15 K, x1 = 0.5999	0.124	122.2
288.15 K, x1 = 0.7001	0.078	147.4
288.15 K, x1 = 0.8109	0.044	176.7
288.15 K, x1 = 0.8998	0.023	201.6
288.15 K, x1 = 1	0.011	231.2
293.15 K, x1 = 0.1003	0.943	13.32
293.15 K, x1 = 0.2	0.716	26.44
293.15 K, x1 = 0.4998	0.222	76.63
293.15 K, x1 = 0.7001	0.097	116.9
293.15 K, x1 = 0.8109	0.056	140.8
293.15 K, x1 = 1	0.018	185.4
298.15 K, x1 = 0.2	0.81	20.51
298.15 K, x1 = 0.2997	0.609	32.66
298.15 K, x1 = 0.3997	0.395	45.88
298.15 K, x1 = 0.4998	0.268	60.22
298.15 K, x1 = 0.5999	0.186	76.06
298.15 K, x1 = 0.7001	0.122	93.45
298.15 K, x1 = 0.8109	0.072	113.4
298.15 K, x1 = 0.8998	0.046	130.1
303.15 K, x1 = 0.1003	1.22	7.961
303.15 K, x1 = 0.2	0.919	16.1
303.15 K, x1 = 0.3997	0.462	36.37
303.15 K, x1 = 0.4998	0.317	47.87
303.15 K, x1 = 0.5999	0.228	60.72
303.15 K, x1 = 1	0.04	121.1
308.15 K, x1 = 0.1003	1.37	6.38
308.15 K, x1 = 0.2	1.05	13.1
308.15 K, x1 = 0.2997	0.799	20.89
308.15 K, x1 = 0.3997	0.533	29.16
308.15 K, x1 = 0.4998	0.37	38.73
308.15 K, x1 = 0.5999	0.271	49.63
308.15 K, x1 = 0.7001	0.183	61.64
308.15 K, x1 = 0.8998	0.082	87.11
313.15 K, x1 = 0.2	1.17	10.81
313.15 K, x1 = 0.2997	0.894	17.08
313.15 K, x1 = 0.3997	0.617	24.03
313.15 K, x1 = 0.4998	0.435	31.72
313.15 K, x1 = 0.7001	0.221	50.72
313.15 K, x1 = 0.8998	0.105	72.01
313.15 K, x1 = 1	0.072	83.06
318.15 K, x1 = 0.1003	1.71	4.406
318.15 K, x1 = 0.2	1.32	8.853
318.15 K, x1 = 0.2997	1.01	14.22
318.15 K, x1 = 0.4998	0.506	26.45
318.15 K, x1 = 0.5999	0.378	33.63
318.15 K, x1 = 0.8109	0.183	51.83
318.15 K, x1 = 0.8998	0.134	60.04
318.15 K, x1 = 1	0.094	69.26
323.15 K, x1 = 0.1003	1.91	3.679
323.15 K, x1 = 0.2	1.47	7.468
323.15 K, x1 = 0.2997	1.13	–
